According to paper PMC8563940 (Scientific Reports, 2021):

Assays:
Type in all cases: biochemical
[1] = biological target: human AChE (Homo sapiens, UniProt P22303)
[2] = biological target: fenamiphos-inhibited hAChE (Homo sapiens, UniProt P22303)
[3] = biological target: methamidophos-inhibited hAChE (Homo sapiens, UniProt P22303)
[4] = biological target: T1, human butyrylcholinesterase (hBChE) (Homo sapiens, UniProt P06276); test: Progressive inhibition of hBChE by organophosphorus pesticides (Ellman method); details: for kinact/KI: read-out: ki, overall second-order rate constant of inhibition (converted)
T1 construct: hBChE derived from purified human plasma; from tissue; host or cells: human plasma
T1 sequence (P06276 29-602): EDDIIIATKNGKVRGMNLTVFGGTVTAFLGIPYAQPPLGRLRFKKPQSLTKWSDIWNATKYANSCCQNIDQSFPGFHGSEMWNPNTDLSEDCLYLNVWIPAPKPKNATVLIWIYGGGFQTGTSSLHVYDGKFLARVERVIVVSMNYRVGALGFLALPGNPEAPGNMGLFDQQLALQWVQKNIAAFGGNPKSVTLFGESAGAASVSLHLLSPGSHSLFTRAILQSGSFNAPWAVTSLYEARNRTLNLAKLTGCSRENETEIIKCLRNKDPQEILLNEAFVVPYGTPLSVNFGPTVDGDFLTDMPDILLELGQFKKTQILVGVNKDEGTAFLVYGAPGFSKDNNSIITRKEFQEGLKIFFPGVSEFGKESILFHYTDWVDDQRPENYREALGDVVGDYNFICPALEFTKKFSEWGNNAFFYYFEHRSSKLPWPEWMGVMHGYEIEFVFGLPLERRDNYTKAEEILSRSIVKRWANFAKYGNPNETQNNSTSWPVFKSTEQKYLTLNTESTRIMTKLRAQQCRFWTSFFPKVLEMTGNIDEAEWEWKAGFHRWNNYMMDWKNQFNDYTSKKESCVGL

[5] = biological target: T2, human acetylcholinesterase (hAChE) (Homo sapiens, UniProt P22303); test: Progressive inhibition of hAChE by organophosphorus pesticides (Ellman method); details: 25 °C, ± SEM; for kinact/KI: read-out: ki, overall second-order rate constant of inhibition (converted)
T2 construct: made in house
T2 sequence (P22303 32-614): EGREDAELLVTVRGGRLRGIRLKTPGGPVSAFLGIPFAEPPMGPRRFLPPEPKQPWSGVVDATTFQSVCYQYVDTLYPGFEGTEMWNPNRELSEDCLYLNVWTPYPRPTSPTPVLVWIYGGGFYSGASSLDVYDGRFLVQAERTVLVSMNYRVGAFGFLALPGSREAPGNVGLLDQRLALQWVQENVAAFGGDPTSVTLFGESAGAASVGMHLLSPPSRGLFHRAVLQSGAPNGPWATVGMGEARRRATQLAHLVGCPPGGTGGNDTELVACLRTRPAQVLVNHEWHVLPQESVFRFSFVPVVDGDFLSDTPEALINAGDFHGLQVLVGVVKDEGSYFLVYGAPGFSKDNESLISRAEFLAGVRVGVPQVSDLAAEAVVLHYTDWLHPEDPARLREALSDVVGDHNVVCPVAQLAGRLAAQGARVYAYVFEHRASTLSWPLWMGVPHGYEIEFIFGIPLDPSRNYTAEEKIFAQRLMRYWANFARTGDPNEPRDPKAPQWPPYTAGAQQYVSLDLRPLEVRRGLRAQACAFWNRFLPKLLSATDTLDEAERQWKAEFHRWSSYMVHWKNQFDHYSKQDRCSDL

Sequence of human AChE (P22303 32-614): as above
Sequence of fenamiphos-inhibited hAChE (P22303 32-614): as above
Sequence of methamidophos-inhibited hAChE (P22303 32-614): as above

Compound | Inhibition of AChE with oxime [1] [%] | Reactmax (screening) [2] [%] | Reactmax, maximal percentage of reactivation [2] [%] | k2, maximal first-order reactivation rate constant [2] [min⁻¹] | kobs, observed reactivation rate (screening) [2] [min -1] | kr, overall second-order reactivation rate constant [2] [M⁻¹ s⁻¹] | t, time to achieve maximum of reactivation (screening) [2] [h] | Reactmax (screening) [3] [%] | Reactmax, maximal percentage of reactivation [3] [%] | k2, maximal first-order reactivation rate constant [3] [min⁻¹] | kobs, observed reactivation rate (screening) [3] [min -1] | kr, overall second-order reactivation rate constant [3] | t, time to achieve maximum of reactivation (screening) [3] [h] | kmax, first-order inhibition constant ([4]; hBChE, 25 °C, ± SEM) [min⁻¹] | further results
ON=Cc1cc[n+](CCn2cc(C[n+]3ccccc3C=NO)nn2)cc1 [Oxime 14A] | 10 | 42 | 45 | 0.069 ± 0.034 | 0.0062 | 1.43 ± 0.413 | 3 | 68 | 85 | 22.2 ± 3.8 | 6.7944 | 108,300 ± 17,090 min^−1 M^−1 | 0.08 |  | 
CCCSP(=O)(OCC)SCCC [Ethoprophos, ethoprophos] |  |  |  |  |  |  |  |  |  |  |  |  |  | 0.58 ± 0.05 | Ki [4]: 36.4 ± 6.68 µM
COP(N)(=O)SC (stereo not shown) [Methamidophos, methamidophos] |  |  |  |  |  |  |  |  |  |  |  |  |  |  | ki lower than that of fenamiphos ([4]; hBChE): 90 fold; kinact/KI ([4]; hBChE, 25 °C, ± SEM): 6.43 M⁻¹ s⁻¹; kinact/KI [5]: 46 M⁻¹ s⁻¹
C[n+]1ccccc1C=NO [Oxime 2-PAM] | 11 | 46 | 70 | 0.003 ± 0.0002 | 0.0011 | 0.125 ± 0.025 | 20 | 86 | 80 | 2.7 ± 0.2 | 1.1558 | 42,190 ± 2,547 min^−1 M^−1 | 0.36 |  | 
ON=Cc1cc[n+](CCC[n+]2ccc(C=NO)cc2)cc1 [TMB-4] | 8 | 49 | 65 | 0.082 ± 0.010 | 0.0177 | 2.237 ± 0.293 | 1 | 83 | 80 | 16.5 ± 6.6 | 4.2338 | 116,600 ± 12,380 min^−1 M^−1 | 0.16 |  | 
CCOP(=O)(NC(C)C)Oc1ccc(SC)c(C)c1 (stereo not shown) [Fenamiphos, fenamiphos] |  |  |  |  |  |  |  |  |  |  |  |  |  | 0.16 ± 0.01 | ki, overall second-order rate constant of inhibition ([4]; hBChE, 25 °C, ± SEM): 35,890 ± 8,484 min^-1 M^-1; ki, overall second-order rate constant of inhibition [5]: 3,982 ± 264 min^-1 M^-1; kmax, first-order inhibition constant [5]: 0.21 ± 0.01 min⁻¹
CCOP(=S)(OCC)SCn1c(=O)oc2cc(Cl)ccc21 [Phosalone, phosalone] |  |  |  |  |  |  |  |  |  |  |  |  |  | 0.23 ± 0.02 | Ki [4]: 97.9 ± 15.3 µM; kinact/KI ([4]; hBChE, 25 °C, ± SEM): 38.9 M⁻¹ s⁻¹; kinact/KI [5]: 35.5 M⁻¹ s⁻¹
